From PubChem BioAssay AID248 (DTP/NCI, 2004)
Values joined by “and” are separate entries in the source; they are usually repeats but may differ in a detail not shown here. Equal entries are not always repeated. Inconclusive results and toxic doses are left out. Rule as the data show it: active = T/C of 150% or more; inactive = T/C below 125%.

Tested on: L1210 leukemia ip in BDF1 mice, survival T/C
Assay: NCI In Vivo Anticancer Drug Screen. Data for tumor model L1210 Leukemia (intraperitoneal) in B6D2F1 (BDF1) mice
Conditions: endpoint: mean survival time, higher = longer survival
Summary of the method: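 Each compound was tested against a transplantable tumor grown in mice. The endpoint was survival, with treated animals benchmarked against vehicle controls as a simple ratio.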

[1] = dose: 100.0 mg/kg/injection, schedule: Q01DX009 (ip), vehicle: Klucel (hydroxypropylcellulose) (HPC)
[2] = dose: 200.0 mg/kg/injection, schedule: Q01DX009 (ip), vehicle: Klucel (hydroxypropylcellulose) (HPC)
[3] = dose: 400.0 mg/kg/injection, schedule: Q01DX009 (ip), vehicle: Klucel (hydroxypropylcellulose) (HPC)
[4] = dose: 50.0 mg/kg/injection, schedule: Q01DX001 (ip), vehicle: carboxymethylcellulose (CMC)
[5] = dose: 100.0 mg/kg/injection, schedule: Q01DX001 (ip), vehicle: carboxymethylcellulose (CMC)
[6] = dose: 200.0 mg/kg/injection, schedule: Q01DX001 (ip), vehicle: carboxymethylcellulose (CMC)
[7] = dose: 400.0 mg/kg/injection, schedule: Q01DX001 (ip), vehicle: carboxymethylcellulose (CMC)
[8] = dose: 100.0 mg/kg/injection, schedule: Q04DX003 (ip), vehicle: saline with Tween-80
[9] = dose: 200.0 mg/kg/injection, schedule: Q04DX003 (ip), vehicle: saline with Tween-80
[10] = dose: 400.0 mg/kg/injection, schedule: Q04DX003 (ip), vehicle: saline with Tween-80
[11] = dose: 100.0 mg/kg/injection, schedule: Q01DX001 (ip), vehicle: saline
[12] = dose: 200.0 mg/kg/injection, schedule: Q01DX001 (ip), vehicle: saline
[13] = dose: 400.0 mg/kg/injection, schedule: Q01DX001 (ip), vehicle: saline
[14] = dose: 100.0 mg/kg/injection, schedule: Q01DX009 (ip), vehicle: saline with Tween-80
[15] = dose: 200.0 mg/kg/injection, schedule: Q01DX009 (ip), vehicle: saline with Tween-80
[16] = dose: 400.0 mg/kg/injection, schedule: Q01DX009 (ip), vehicle: saline with Tween-80

Measured: T/C

C=C1OC(n2cnc3c(=N)n(O)cnc32)C2OC(C)(C)OC12 (configuration not stated)
inactive: dose: 100.0 mg/kg/injection, schedule: Q01DX005 (ip), vehicle: saline 96 % of control | dose: 200.0 mg/kg/injection, schedule: Q01DX005 (ip), vehicle: saline 102 % of control

CCCCCCCCCCCCCC[S+](C)C
inactive: dose: 12.5 mg/kg/injection, schedule: Q01DX009 (ip), vehicle: saline 108 % of control | dose: 12.5 mg/kg/injection, schedule: Q04DX003 (ip), vehicle: saline 101 % of control | dose: 25.0 mg/kg/injection, schedule: Q01DX009 (ip), vehicle: saline 123 % of control | dose: 25.0 mg/kg/injection, schedule: Q04DX003 (ip), vehicle: saline 90 % of control | dose: 50.0 mg/kg/injection, schedule: Q04DX003 (ip), vehicle: saline 96 % of control

O=C(CNC(=O)Nc1ccc(Cl)c(Cl)c1)NNC(=O)Nc1ccc(Cl)c([N+](=O)[O-])c1
inactive: [1] 97 % of control | [2] 97 % of control | [3] 93 % of control

CC(=O)CC(=O)Nc1nc(C)cs1
inactive: dose: 75.0 mg/kg/injection, schedule: Q01DX001 (ip), vehicle: Klucel (hydroxypropylcellulose) (HPC) 100 % of control | dose: 150.0 mg/kg/injection, schedule: Q01DX001 (ip), vehicle: Klucel (hydroxypropylcellulose) (HPC) 100 % of control | dose: 300.0 mg/kg/injection, schedule: Q01DX001 (ip), vehicle: Klucel (hydroxypropylcellulose) (HPC) 95 % of control

CCCCCCCCCC(=O)N1CCCCC1C (configuration not stated)
inactive: dose: 25.0 mg/kg/injection, schedule: Q04DX002 (ip), vehicle: carboxymethylcellulose (CMC) 97 % of control and 99 % of control | [4] 93 % of control | dose: 50.0 mg/kg/injection, schedule: Q01DX009 (ip), vehicle: carboxymethylcellulose (CMC) 98 % of control and 103 % of control | dose: 50.0 mg/kg/injection, schedule: Q04DX002 (ip), vehicle: carboxymethylcellulose (CMC) 96 % of control and 97 % of control | dose: 50.0 mg/kg/injection, schedule: Q04DX003 (ip), vehicle: carboxymethylcellulose (CMC) 95 % of control | [5] 93 % of control | dose: 100.0 mg/kg/injection, schedule: Q01DX009 (ip), vehicle: carboxymethylcellulose (CMC) 94 % of control and 100 % of control | dose: 100.0 mg/kg/injection, schedule: Q04DX003 (ip), vehicle: carboxymethylcellulose (CMC) 97 % of control | [6] 96 % of control | dose: 200.0 mg/kg/injection, schedule: Q01DX009 (ip), vehicle: carboxymethylcellulose (CMC) 100 % of control and 104 % of control | dose: 200.0 mg/kg/injection, schedule: Q04DX002 (ip), vehicle: carboxymethylcellulose (CMC) 107 % of control and 92 % of control | dose: 200.0 mg/kg/injection, schedule: Q04DX003 (ip), vehicle: carboxymethylcellulose (CMC) 95 % of control | dose: 400.0 mg/kg/injection, schedule: Q04DX002 (ip), vehicle: carboxymethylcellulose (CMC) 103 % of control and 90 % of control

Nc1nc(-c2ccccc2)c(CCCOc2ccc(NC(=O)CBr)cc2)c(=O)[nH]1
inactive: [4] 91 % of control | [5] 96 % of control | [6] 86 % of control | [7] 86 % of control

Cc1cccc2nc3nc(Cl)c(Cl)nc3n12
inactive: dose: 75.0 mg/kg/injection, schedule: Q01DX001 (ip), vehicle: acetone 98 % of control | dose: 150.0 mg/kg/injection, schedule: Q01DX001 (ip), vehicle: acetone 101 % of control | dose: 300.0 mg/kg/injection, schedule: Q01DX001 (ip), vehicle: acetone 92 % of control

Cc1ccc(NC(=O)c2ccccc2)cc1Cl
inactive: [1] 98 % of control | dose: 100.0 mg/kg/injection, schedule: Q04DX003 (ip), vehicle: Klucel (hydroxypropylcellulose) (HPC) 106 % of control | [2] 95 % of control | dose: 200.0 mg/kg/injection, schedule: Q04DX003 (ip), vehicle: Klucel (hydroxypropylcellulose) (HPC) 101 % of control | [3] 96 % of control | dose: 400.0 mg/kg/injection, schedule: Q04DX003 (ip), vehicle: Klucel (hydroxypropylcellulose) (HPC) 97 % of control

CCS(=O)(=O)CCNC(=O)NS(=O)(=O)c1ccc(C)cc1
inactive: [8] 97 % of control | [9] 97 % of control | [10] 90 % of control

CC(C)CCC1(CCBr)C(=O)NC(=Nc2ccccc2)NC1=O (configuration not stated)
inactive: [5] 96 % of control | [6] 102 % of control | [7] 94 % of control

COc1ccc(C=O)cc1OCc1ccccc1
inactive: dose: 100.0 mg/kg/injection, schedule: Q01DX009 (ip), vehicle: water 96 % of control | dose: 100.0 mg/kg/injection, schedule: Q04DX003 (ip), vehicle: water 100 % of control | dose: 200.0 mg/kg/injection, schedule: Q01DX009 (ip), vehicle: water 96 % of control | dose: 200.0 mg/kg/injection, schedule: Q04DX003 (ip), vehicle: water 96 % of control | dose: 400.0 mg/kg/injection, schedule: Q01DX009 (ip), vehicle: water 102 % of control | dose: 400.0 mg/kg/injection, schedule: Q04DX003 (ip), vehicle: water 100 % of control

CCN(CC)CCOC(=O)c1cc2ccccc2s1
inactive: [11] 94 % of control | [12] 102 % of control | [13] 96 % of control

C[N+]1(Cc2ccccc2)CCC(=O)CC1
inactive: dose: 50.0 mg/kg/injection, schedule: Q01DX001 (ip), vehicle: saline 97 % of control | [11] 100 % of control | [12] 103 % of control

Oc1ccccc1Sc1ccccc1O
inactive: [11] 92 % of control | [13] 97 % of control

CCOC(=O)N1CCC2(CC1)NC(=O)c1ccccc1N2
inactive: [14] 98 % of control | [8] 100 % of control | [15] 97 % of control | [9] 102 % of control | [16] 97 % of control | [10] 96 % of control

COc1ccccc1C(=O)CC(O)(C(F)(F)F)C(F)(F)F
inactive: [14] 105 % of control | [15] 103 % of control | [16] 103 % of control

O=C(Nc1ccc2oc(=O)c3ccccc3c2c1)C(Cl)Cl
inactive: dose: 15.0 mg/kg/injection, schedule: Q01DX015 (ip), vehicle: carboxymethylcellulose (CMC) 88 % of control | dose: 30.0 mg/kg/injection, schedule: Q01DX015 (ip), vehicle: carboxymethylcellulose (CMC) 88 % of control | dose: 60.0 mg/kg/injection, schedule: Q01DX015 (ip), vehicle: carboxymethylcellulose (CMC) 94 % of control | [5] 97 % of control | dose: 120.0 mg/kg/injection, schedule: Q01DX015 (ip), vehicle: carboxymethylcellulose (CMC) 93 % of control and 96 % of control | [6] 109 % of control | dose: 240.0 mg/kg/injection, schedule: Q01DX015 (ip), vehicle: carboxymethylcellulose (CMC) 98 % of control | [7] 103 % of control | dose: 480.0 mg/kg/injection, schedule: Q01DX015 (ip), vehicle: carboxymethylcellulose (CMC) 98 % of control

CC(=O)N1N=C(c2ccccc2)CC1C1CC(c2ccccc2)=NN1C(C)=O (configuration not stated)
inactive: [11] 102 % of control | [12] 100 % of control | [13] 102 % of control

CC(=O)OCc1ccc[n+](CCc2c[nH]c3ccccc23)c1
inactive: [8] 95 % of control | [9] 90 % of control
